# Source: patent US20140357512A1, “HISTONE DEACETYLASE (HDAC) BIOMARKERS IN MULTIPLE MYELOMA” (priority 2013, published 2014)
# Tested on: human myeloma cell line MM.1S
# Experiment: SILAC acetylated-lysine peptide profiling, HDAC inhibitor vs DMSO (light/heavy ratio)
# Format: cell-based
# Excerpt: An embodiment of the invention comprises utilizing the SILAC method in order to quantitate changes in protein expression between two or more populations of cells. The SILAC method is a technique based on mass spectrometry that detects differences in protein abundance among samples using non-radioactive isotopic labeling. The SILAC method is known in the art, and described in detail in Ong et al., “Stable Isotope Labeling by Amino Acids in Cell Culture, SILAC, as a Simple and Accurate Approach to Expression Proteomics”, Molecular & Cellular Proteomics, vol. 1, pp. 376-386 (2002), which is incorporated herein by reference in its entirety.
# Briefly, the SILAC method involves growing two populations of cells in cell culture. The first population of cells is grown in growth media containing normal amino acids (“normal media”). The second population of cells is grown in media lacking a standard essential amino acid (such as lysine), but is then supplemented with a non-radioactive, isotopically labeled form of that essential amino acid (such as lysine labeled with ^13C atoms, rather than normal ^12C atoms), which is called “heavy media”. When the two populations of cells are each growing in the medium, they incorporate the amino acids into all of their proteins. The growth of cells maintained in the heavy media is no different from that in normal media. All peptides containing the heavy amino acids are heavier than their normal counterparts. The cells from each of the two populations of cells are lysed. The lysates from each of the two cell populations are then combined. The combined cell lysates are then analyzed by mass spectrometry. Pairs of chemically identical peptides of different stable isotope composition can be differentiated in a mass spectrometer due to their difference in mass. The ratio of peak intensities in the mass spectrum for such peptide pairs reflects the abundance ratio for the two proteins.
# This example describes SILAC studies that were performed to compare the effects of three different HDAC inhibitors (Compound A, Compound B, and tubastatin A) to a control on a human multiple myeloma cell line. The HDAC inhibitors were also compared amongst themselves to determine differences in their effects.
# A human myeloma cell line MM.1S was grown using either ^12C (light) or ^13C (heavy) lysine containing culture medium. The “heavy” cells were treated with DMSO as the control, and the “light” cells were treated with a single HDAC inhibitor at 37° C. for 6 hours. The heavy and light cells were lysed, and the lysates were mixed in 1:1 ratio and digested with the protease trypsin. The acetylated lysine containing peptides (due to the action of the HDAC inhibitor) in the digested peptide pool were captured by a non-specific anti-acetylated lysine antibody cocktail (the antibodies identify both light and heavy acetylated peptides), and subjected to mass spectrometry analysis in order to identify thousands of individual peptides.
# Thousands of peptides were identified in pairs (^12C and ^13C) due to their known mass differences. The amino acid sequence and quantitative ratio (Light/Heavy) of a given peptide in two differentially treated cell lysates were then determined and annotated with their possible protein (gene) sources.
# As stated above, three HDAC inhibitors (Compound A, Compound B, and Tubastatin A) were used. Thus, the SILAC method was performed three times, with a different HDAC inhibitor compared to a control each time. Accordingly, there are three pairs of quantitative data in the table below, i.e., Compound A:DMSO, Compound B:DMSO, and Tubastatin A:DMSO. A cut-off of 1.30 fold of change (increase or decrease) was then used to determine “changed” or “+” in the table, and any peptides with a fold of change less than 1.3 fold were determined to be “unchanged” or “0” in the table. Those peptides that were not identified were marked as “NA” in the table. […]
smiles,measurement,setting,value
"O=C(NO)c1cnc(NC2(c3cccc(F)c3)CCCCC2)nc1 [Compound B, 2-((1-(3-fluorophenyl)cyclohexyl)amino)-N-hydroxypyrimidine-5-carboxamide]",L/H ratio of acetylated peptide […](ac)SHR (SEQ ID NO: 56),"IGLV2-14, IGLC2 [208], log 2 scale, drug vs DMSO",0.00
same,"light to heavy ratio (L/H ratio) of acetylated peptide, log 2 scale","IGQGYLIK(ac)DGK (SEQ ID NO: 249), 60S ribosomal protein L3 [294], SNORD43, RPL3",0.00
same,L/H ratio of acetylated peptide,"IIWHK(ac)FK (SEQ ID NO: 419), Isoform 1 of 39S ribosomal protein L47 mitochondrial [180], MRPL47",−0.73 log 2
same,"light to heavy ratio (L/H ratio) of acetylated peptide, log 2 scale","IMK(ac)DLDQCR (SEQ ID NO: 217), Protein S100-A10 [57], S100A10",0.00
same,L/H ratio of acetylated peptide,"IMK(ac)SEVLR (SEQ ID NO: 434), 26S protease regulatory subunit 6A [56], PSMC3",0.41 log 2
same,L/H ratio of acetylated peptide,"IMQK(ac)YGFR (SEQ ID NO: 440), Splicing factor 45 [245], RBM17",−0.50 log 2
same,"light to heavy ratio (L/H ratio) of acetylated peptide, log 2 scale","IQDK(ac)EGIPPDQQR (SEQ ID NO: 212), Ubiquitin-40S ribosomal protein S27a [33], RPS27A",0.00
same,L/H ratio of acetylated peptide,"IQFK(ac)QDDGTGPEK (SEQ ID NO: 412), Isoform 1 of Far upstream element-binding protein 2 [359], KHSRP",0.61 log 2
same,"light to heavy ratio (L/H ratio) of acetylated peptide, log 2 scale","ISK(ac)EVLAGR (SEQ ID NO: 167), Isoform Short of Heterogeneous nuclear ribonucleoprotein U [417], HNRNPU",0.00
same,L/H ratio of acetylated peptide,"IYHPNVDK(ac)LGR (SEQ ID NO: 462), Ubiquitin-conjugating enzyme E2 N [82], UBE2N",−0.70 log 2
same,"light to heavy ratio (L/H ratio), log 2 scale, acetylated peptide LMK(ac)ICMNEDPAK (SEQ ID NO: 800)","Integrin-linked protein kinase [426], gene ILK, drug:DMSO",0.00
same,light to heavy ratio (L/H ratio) of acetylated peptide HAHGDQYK(ac)ATDFVADR (SEQ ID NO: 574),"Isocitrate dehydrogenase [NADP] mitochondrial [180], gene IDH2, inhibitor:DMSO",0.00 log 2
same,light to heavy ratio (L/H ratio) of acetylated peptide AGTFK(ac)MVFTPK (SEQ ID NO: 606),"Isocitrate dehydrogenase [NADP] mitochondrial [193], gene IDH2, inhibitor:DMSO",0.00 log 2
same,light to heavy ratio (L/H ratio) of acetylated peptide TDFDKNK(ac)IWYEHR (SEQ ID NO: 555),"Isocitrate dehydrogenase [NADP] mitochondrial [282], gene IDH2, inhibitor:DMSO",0.00 log 2
same,light to heavy ratio (L/H ratio) of acetylated peptide AVLIDK(ac)DQSPK (SEQ ID NO: 577),"Isoform 1 of 3-hydroxyisobutyryl-CoA hydrolase mitochondrial [353], gene HIBCH, inhibitor:DMSO",0.00 log 2
same,light to heavy ratio (L/H ratio) of acetylated peptide […](ac)VVQER (SEQ ID NO: 318),"Isoform 1 of 39S ribosomal protein L47 mitochondrial [144], MRPL47, drug:DMSO",0.00 log 2
same,light to heavy ratio (L/H ratio) of acetylated peptide ATVPK(ac)TEIR (SEQ ID NO: 272),"Isoform 1 of 40S ribosomal protein S24 [37], RPS24, drug:DMSO",0.00 log 2
same,light to heavy ratio (L/H ratio) of acetylated peptide ISK(ac)EEAMR (SEQ ID NO: 299),"Isoform 1 of 60S ribosomal protein L11 [159], RPL11, drug:DMSO",0.00 log 2
same,light to heavy ratio (L/H ratio) of acetylated peptide RPEILK(ac)QEIK (SEQ ID NO: 359),"Isoform 1 of AP-2 complex subunit beta [318], AP2B1, drug:DMSO",0.57 log 2
same,light to heavy ratio (L/H ratio) of acetylated peptide […](ac)ANVAK (SEQ ID NO: 364),"Isoform 1 of ATP synthase subunit d mitochondrial [58], ATP5H, drug:DMSO",0.48 log 2
same,light to heavy ratio (L/H ratio) of acetylated peptide VPVPEDK(ac)[…] (SEQ ID NO: 290),"Isoform 1 of ATP synthase subunit d mitochondrial [85], ATP5H, drug:DMSO",0.00 log 2
same,light to heavy ratio (L/H ratio) of acetylated peptide GHCPPAPAK(ac)PMHPENK(ac)LTNHGK (SEQ ID NO: 366),"Isoform 1 of B-cell CLL/lymphoma 9-like protein [36:43], BCL9L, drug:DMSO",0.63 log 2
same,light to heavy ratio (L/H ratio) of acetylated peptide VWNYK(ac)LR (SEQ ID NO: 593),"Isoform 1 of Coatomer subunit alpha [81], gene COPA, inhibitor:DMSO",0.00 log 2
same,light to heavy ratio (L/H ratio) of acetylated peptide SLLK(ac)PFCAALLK (SEQ ID NO: 329),"Isoform 1 of Cytoskeleton-associated protein 5 [438], CKAP5, drug:DMSO",0.48 log 2
same,light to heavy ratio (L/H ratio) of acetylated peptide ELEK(ac)VCNPIITK (SEQ ID NO: 612),"Isoform 1 of Heat shock cognate 71 kDa protein [601], gene HSPA8, inhibitor:DMSO",0.00 log 2
same,light to heavy ratio (L/H ratio) of acetylated peptide DVSYQGGK(ac)SIK (SEQ ID NO: 571),"Isoform 1 of Histone-lysine N-methyltransferase MLL3 [758], gene MLL3, inhibitor:DMSO",0.00 log 2
same,light to heavy ratio (L/H ratio) of acetylated peptide TLVLSDK(ac)HSPQK (SEQ ID NO: 523),"Isoform 1 of Histone-lysine N-methyltransferase MLL3 [2809], gene MLL3, inhibitor:DMSO",0.00 log 2
same,light to heavy ratio (L/H ratio) of acetylated peptide LVAENK(ac)FGK (SEQ ID NO: 296),"Isoform 1 of Hydroxyacyl-coenzyme A dehydrogenase mitochondrial [301], HADH, drug:DMSO",0.00 log 2
same,light to heavy ratio (L/H ratio) of acetylated peptide K(ac)[…] (SEQ ID NO: 316),"Isoform 1 of L-lactate dehydrogenase A chain [318], LDHA, drug:DMSO",0.00 log 2
same,light to heavy ratio (L/H ratio) of acetylated peptide INK(ac)ALDK (SEQ ID NO: 344),"Isoform 1 of Myosin-9 [435], MYH9, drug:DMSO",0.43 log 2
same,light to heavy ratio (L/H ratio) of acetylated peptide FYK(ac)[…] (SEQ ID NO: 596),"Isoform 1 of N-alpha-acetyltransferase 50 NatE catalytic subunit [37], gene NAA50, inhibitor:DMSO",0.00 log 2
same,"light to heavy ratio (L/H ratio), log 2 scale, acetylated peptide […](ac)SK (SEQ ID NO: 767)","Isoform 1 of Peripherin [288], gene PRPH, drug:DMSO",0.00
